Measurements reported in article PMC5109050, “Structure and Function of Cyanobacterial DHDPS and DHDPR” (Scientific Reports, 2016).
Each block holds one compound with its values, some of them ahead of it.

Key:
[1] = biological target: T1, Vv-DHDPS (Vitis vinifera, UniProt D7U7T8); test: DHDPS-DHDPR coupled assay, dose response, four-parameter logistic; format: biochemical; settings: 30 °C; allosteric feedback inhibitor; control enzyme
T1 construct: gene VIT_15s0048g00750; control enzyme; construct not described here
T1 sequence (D7U7T8 40-365 limits assumed): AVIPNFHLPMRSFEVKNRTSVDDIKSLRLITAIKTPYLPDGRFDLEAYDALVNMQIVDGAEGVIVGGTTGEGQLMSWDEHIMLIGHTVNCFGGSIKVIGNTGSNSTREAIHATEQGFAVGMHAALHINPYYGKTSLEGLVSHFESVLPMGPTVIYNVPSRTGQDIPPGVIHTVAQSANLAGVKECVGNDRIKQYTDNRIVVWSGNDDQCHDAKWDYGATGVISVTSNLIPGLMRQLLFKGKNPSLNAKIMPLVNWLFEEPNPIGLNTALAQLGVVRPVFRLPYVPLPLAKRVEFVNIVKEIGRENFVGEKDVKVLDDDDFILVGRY

[2] = biological target: T2, Av-DHDPS (Trichormus variabilis, UniProt Q3M723); test: as above; format: biochemical
T2 construct: gene dapA; synthetic codon-optimised dapA in pRSET-A, His-tagged, E. coli BL21-DE3 pLysS, IMAC; homotetramer 147 kDa; monomer of 297 residues in crystal; active-site Lys164
Text: DHDPS-DHDPR coupled assay, dose response, four-parameter logistic on Av-DHDPS

[3] = biological target: T3, Ec-DHDPS (Escherichia coli, UniProt P0A6L2); test: as above; format: biochemical
T3 construct: gene dapA; control enzyme; construct not described here
T3 sequence (P0A6L2 1-292): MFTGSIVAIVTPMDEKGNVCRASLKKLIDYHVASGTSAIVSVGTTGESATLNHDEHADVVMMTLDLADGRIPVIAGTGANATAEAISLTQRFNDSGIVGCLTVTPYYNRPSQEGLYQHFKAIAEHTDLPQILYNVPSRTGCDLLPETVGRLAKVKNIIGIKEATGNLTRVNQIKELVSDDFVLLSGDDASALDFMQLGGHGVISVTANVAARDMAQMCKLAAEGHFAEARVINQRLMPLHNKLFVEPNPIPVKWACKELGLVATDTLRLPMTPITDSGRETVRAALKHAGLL

[4] = biological target: T2, Av-DHDPS; test: X-ray crystallography, […] Å; format: binding; settings: covalent; bound to Lys164 in active site; crystallised with 10 mM pyruvate, pH 6.5
[5] = biological target: dihydrodipicolinate synthase from Anabaena variabilis (Anabaena variabilis) (UniProt N8VIX7); test: AUC; sedimentation velocity, 20 °C, 40,000 rpm, absorbance at 230 nm, initial concentrations 0.1-7.0 μM (size-distribution analysis at 4.0 μM); single species, tetramer
[6] = biological target: T4, Av-DHDPR (Trichormus variabilis, UniProt Q3MFY8); test: microscale thermophoresis, label-free, single-site fit; format: binding
T4 construct: gene dapB; synthetic codon-optimised dapB in pRSET-A, His-tagged, E. coli BL21-DE3 pLysS, IMAC; homotetramer 139 kDa; monomer of 287 residues in crystal
T4 sequence (Q3MFY8 2-278): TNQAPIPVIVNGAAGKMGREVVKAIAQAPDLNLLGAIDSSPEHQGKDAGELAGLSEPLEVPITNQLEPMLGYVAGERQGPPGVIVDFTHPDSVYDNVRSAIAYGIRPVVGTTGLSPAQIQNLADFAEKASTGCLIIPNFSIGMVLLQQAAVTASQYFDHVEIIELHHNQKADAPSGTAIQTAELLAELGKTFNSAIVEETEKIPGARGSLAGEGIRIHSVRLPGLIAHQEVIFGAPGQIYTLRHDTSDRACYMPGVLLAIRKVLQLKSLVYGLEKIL

[7] = biological target: dihydrodipicolinate reductase from Anabaena variabilis (Anabaena variabilis) (UniProt N8WZH2); test: AUC; sedimentation velocity, 20 °C, 40,000 rpm, absorbance at 230 nm, initial concentrations 0.1-7.0 μM (size-distribution analysis at 4.0 μM); single species, tetramer

T2 sequence (Q3M723 entry or part of it): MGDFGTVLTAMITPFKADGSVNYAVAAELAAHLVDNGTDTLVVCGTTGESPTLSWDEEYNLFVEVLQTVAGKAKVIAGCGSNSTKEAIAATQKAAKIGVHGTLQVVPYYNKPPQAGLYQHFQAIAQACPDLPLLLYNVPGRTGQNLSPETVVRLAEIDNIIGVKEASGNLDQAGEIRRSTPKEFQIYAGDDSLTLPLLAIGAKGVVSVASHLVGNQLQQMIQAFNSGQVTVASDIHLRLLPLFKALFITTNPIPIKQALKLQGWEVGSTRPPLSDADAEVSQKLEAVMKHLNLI

Compound: NCCCC[C@H](N)C(=O)O [(S)-lysine]
- IC50 [1]: 30 µM
- IC50 [2]: 68 µM
- IC50 [3]: 210 µM

Compound: CC(=O)C(=O)O [pyruvate]
- X-ray crystallography, 1.92 Å [4]: Shown in purple is the substrate pyruvate bonded to Lys164 in Av-DHDPS.

Compound: dihydrodipicolinate reductase from Anabaena variabilis (from UniProt N8WZH2 1-273) (enzyme)
- stoichiometry N [7]: 4

Next, values leading:

- stoichiometry N [5]: 4
Compound: dihydrodipicolinate synthase from Anabaena variabilis (from UniProt N8VIX7 1-299) (enzyme)

- Kd [6]: 100 ± 8.2 µM
Compound: O=C(O)c1cccc(C(=O)O)n1 [2,6-pyridinedicarboxylate]
